The target of experiment [1] is Casein kinase I isoform epsilon (Homo sapiens, UniProt P49674).
In experiment [2] the target is Cyclin-dependent kinase 5/CDK5 activator 1 (Homo sapiens, UniProt Q00535). Type of experiment: cell-based, Sf9.
In experiment [3] the target is Dual specificity protein kinase CLK1 (Homo sapiens, UniProt P49759). The experiment is classed as cell-based, Sf9.
For experiment [4], the target named is Dual specificity protein kinase CLK2 (Homo sapiens, UniProt P49760).
Experiment [5] addresses Dual specificity protein kinase CLK3 (Homo sapiens, UniProt P49761). The experiment is classed as cell-based, Sf9.
For experiment [6], the target named is Dual specificity protein kinase CLK4 (Homo sapiens, UniProt Q9HAZ1).
Chain of Dual specificity protein kinase CLK4 (Q9HAZ1 whole entry): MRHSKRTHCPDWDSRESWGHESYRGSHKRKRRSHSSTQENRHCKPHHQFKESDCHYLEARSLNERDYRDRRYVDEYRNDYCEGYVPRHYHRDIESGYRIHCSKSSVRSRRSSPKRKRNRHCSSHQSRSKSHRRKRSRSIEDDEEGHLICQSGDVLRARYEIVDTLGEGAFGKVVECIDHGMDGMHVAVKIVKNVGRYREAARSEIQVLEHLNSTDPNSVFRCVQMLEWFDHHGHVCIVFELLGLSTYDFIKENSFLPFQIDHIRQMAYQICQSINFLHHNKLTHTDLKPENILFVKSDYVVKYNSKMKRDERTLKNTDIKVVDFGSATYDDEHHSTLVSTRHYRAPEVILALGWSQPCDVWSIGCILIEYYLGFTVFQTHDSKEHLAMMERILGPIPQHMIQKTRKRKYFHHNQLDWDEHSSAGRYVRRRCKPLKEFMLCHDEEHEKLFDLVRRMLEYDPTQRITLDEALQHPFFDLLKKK
The target of experiment [7] is T1, Dual specificity tyrosine-phosphorylation-regulated kinase 2 (Homo sapiens, UniProt Q92630).
T1 sequence (Q92630 whole entry): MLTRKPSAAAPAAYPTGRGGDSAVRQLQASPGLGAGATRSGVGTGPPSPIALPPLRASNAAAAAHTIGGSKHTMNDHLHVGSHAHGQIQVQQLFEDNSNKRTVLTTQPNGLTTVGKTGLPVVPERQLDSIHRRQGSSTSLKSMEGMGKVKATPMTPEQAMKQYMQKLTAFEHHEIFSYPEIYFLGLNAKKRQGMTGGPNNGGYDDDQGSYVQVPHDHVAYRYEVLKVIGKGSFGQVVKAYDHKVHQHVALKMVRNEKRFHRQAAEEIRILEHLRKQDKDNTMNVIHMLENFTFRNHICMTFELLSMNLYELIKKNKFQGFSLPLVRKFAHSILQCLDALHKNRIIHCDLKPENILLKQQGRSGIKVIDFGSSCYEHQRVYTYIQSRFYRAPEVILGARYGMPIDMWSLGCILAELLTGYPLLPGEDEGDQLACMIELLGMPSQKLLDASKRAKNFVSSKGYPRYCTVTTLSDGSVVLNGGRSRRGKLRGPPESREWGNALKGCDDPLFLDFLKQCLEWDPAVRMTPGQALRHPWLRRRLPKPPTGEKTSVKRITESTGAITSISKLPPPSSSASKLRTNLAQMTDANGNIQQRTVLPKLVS

Experiment [8] addresses T2, Dual specificity tyrosine-phosphorylation-regulated kinase 4 (Homo sapiens, UniProt Q9NR20).
T2 sequence (Q9NR20 whole entry): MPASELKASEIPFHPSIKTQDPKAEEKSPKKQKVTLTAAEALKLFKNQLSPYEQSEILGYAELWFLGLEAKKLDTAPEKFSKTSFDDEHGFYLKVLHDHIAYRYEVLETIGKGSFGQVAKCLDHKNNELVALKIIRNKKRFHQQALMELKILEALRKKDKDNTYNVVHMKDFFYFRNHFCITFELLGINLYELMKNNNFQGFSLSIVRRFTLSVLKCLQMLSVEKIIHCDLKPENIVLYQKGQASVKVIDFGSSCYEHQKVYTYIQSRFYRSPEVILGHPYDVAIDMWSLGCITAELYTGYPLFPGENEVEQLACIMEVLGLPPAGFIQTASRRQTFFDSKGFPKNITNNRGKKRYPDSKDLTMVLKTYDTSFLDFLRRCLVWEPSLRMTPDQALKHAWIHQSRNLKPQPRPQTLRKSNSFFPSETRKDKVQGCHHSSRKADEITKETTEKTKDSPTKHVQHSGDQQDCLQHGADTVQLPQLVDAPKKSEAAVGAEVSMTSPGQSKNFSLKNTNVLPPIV

Experiment [9] concerns the target Glycogen synthase kinase-3 beta (Homo sapiens, UniProt P49841). Type of experiment: cell-based, Sf9.
In experiment [10] the target is Dual specificity tyrosine-phosphorylation-regulated kinase 1A (Homo sapiens, UniProt Q13627).
Experiment [11] has as its target T3, Dual specificity tyrosine-phosphorylation-regulated kinase 3 (Homo sapiens, UniProt O43781).
T3 sequence (O43781 whole entry): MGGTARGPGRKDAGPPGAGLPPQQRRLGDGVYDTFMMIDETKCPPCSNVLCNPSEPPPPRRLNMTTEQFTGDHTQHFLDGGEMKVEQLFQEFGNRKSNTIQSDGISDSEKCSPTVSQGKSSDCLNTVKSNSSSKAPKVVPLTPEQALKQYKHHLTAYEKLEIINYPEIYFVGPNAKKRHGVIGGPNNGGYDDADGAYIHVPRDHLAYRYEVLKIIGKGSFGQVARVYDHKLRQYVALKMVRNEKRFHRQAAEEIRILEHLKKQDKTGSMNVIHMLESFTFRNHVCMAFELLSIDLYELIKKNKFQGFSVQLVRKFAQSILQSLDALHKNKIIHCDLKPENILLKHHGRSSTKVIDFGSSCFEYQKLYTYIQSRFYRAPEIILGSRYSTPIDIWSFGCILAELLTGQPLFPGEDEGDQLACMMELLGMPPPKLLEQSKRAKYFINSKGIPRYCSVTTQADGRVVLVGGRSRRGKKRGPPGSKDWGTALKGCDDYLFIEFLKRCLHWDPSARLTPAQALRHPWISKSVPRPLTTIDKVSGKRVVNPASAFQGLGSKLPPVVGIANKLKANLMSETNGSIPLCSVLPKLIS

Structures are written as SMILES. pIC50: −log10 of the molar value. Where only a bound is given, the exact number is not on record here.

What is called pIC50 is −log10 of the IC50, conventionally taken in molar units. Low readings indicate a high IC50, high ones a low IC50.

Chain of Dual specificity protein kinase CLK2 (P49760 whole entry): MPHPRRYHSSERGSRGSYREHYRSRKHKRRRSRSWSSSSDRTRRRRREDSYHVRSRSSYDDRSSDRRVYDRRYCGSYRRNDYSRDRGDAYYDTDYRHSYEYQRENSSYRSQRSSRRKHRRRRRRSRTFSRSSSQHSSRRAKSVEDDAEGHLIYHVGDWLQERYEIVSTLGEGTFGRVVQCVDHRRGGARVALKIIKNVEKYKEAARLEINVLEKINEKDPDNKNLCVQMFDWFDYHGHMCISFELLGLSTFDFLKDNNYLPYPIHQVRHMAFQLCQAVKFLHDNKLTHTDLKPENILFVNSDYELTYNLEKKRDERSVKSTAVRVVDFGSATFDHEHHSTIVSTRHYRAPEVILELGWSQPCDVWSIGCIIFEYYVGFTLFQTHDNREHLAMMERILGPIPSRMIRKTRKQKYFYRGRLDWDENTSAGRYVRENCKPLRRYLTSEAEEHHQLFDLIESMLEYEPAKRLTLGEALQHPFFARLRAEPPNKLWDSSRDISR
Chain of Cyclin-dependent kinase 5/CDK5 activator 1 (Q00535 whole entry): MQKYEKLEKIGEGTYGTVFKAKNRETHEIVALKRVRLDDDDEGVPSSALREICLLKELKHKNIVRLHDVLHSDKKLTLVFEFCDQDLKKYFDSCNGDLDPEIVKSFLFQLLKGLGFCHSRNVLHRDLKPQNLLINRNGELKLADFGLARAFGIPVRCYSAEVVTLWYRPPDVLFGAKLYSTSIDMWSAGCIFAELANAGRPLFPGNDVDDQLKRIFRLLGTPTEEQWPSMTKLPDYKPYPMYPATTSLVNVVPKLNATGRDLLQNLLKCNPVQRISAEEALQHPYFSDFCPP
Chain of Cyclin-dependent kinase 5/CDK5 activator 1 (Q15078 whole entry, further chain): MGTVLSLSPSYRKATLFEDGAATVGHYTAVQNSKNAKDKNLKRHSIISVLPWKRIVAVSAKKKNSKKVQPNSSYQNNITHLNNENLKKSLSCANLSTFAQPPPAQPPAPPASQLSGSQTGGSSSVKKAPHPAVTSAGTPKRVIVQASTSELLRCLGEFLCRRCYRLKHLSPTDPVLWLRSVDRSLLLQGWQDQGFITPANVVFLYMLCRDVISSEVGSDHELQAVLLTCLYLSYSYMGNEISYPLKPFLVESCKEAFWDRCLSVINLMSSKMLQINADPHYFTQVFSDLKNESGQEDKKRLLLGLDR
Chain of Casein kinase I isoform epsilon (P49674 whole entry, canonical isoform): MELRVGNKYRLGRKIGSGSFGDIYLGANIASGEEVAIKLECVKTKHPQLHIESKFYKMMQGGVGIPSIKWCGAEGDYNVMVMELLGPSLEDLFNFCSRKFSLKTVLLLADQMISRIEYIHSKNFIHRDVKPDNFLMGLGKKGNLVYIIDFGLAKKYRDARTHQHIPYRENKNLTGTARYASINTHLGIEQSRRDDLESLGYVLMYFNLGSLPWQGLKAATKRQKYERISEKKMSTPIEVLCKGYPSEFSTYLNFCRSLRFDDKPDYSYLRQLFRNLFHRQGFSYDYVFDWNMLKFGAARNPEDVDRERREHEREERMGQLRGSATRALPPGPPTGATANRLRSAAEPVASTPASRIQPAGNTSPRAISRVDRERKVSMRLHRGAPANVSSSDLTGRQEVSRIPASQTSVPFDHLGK
Chain of Glycogen synthase kinase-3 beta (P49841 whole entry): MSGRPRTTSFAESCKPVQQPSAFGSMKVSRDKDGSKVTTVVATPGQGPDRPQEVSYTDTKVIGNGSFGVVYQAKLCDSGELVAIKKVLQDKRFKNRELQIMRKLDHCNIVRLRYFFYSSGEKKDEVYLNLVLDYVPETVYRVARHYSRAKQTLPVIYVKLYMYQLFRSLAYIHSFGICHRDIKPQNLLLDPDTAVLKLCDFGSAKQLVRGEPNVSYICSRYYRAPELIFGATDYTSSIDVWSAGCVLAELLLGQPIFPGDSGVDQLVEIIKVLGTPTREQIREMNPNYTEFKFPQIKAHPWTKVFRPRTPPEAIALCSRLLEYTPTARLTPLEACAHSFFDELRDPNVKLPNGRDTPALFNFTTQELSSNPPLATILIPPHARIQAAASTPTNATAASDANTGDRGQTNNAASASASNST
Chain of Dual specificity protein kinase CLK1 (P49759 whole entry): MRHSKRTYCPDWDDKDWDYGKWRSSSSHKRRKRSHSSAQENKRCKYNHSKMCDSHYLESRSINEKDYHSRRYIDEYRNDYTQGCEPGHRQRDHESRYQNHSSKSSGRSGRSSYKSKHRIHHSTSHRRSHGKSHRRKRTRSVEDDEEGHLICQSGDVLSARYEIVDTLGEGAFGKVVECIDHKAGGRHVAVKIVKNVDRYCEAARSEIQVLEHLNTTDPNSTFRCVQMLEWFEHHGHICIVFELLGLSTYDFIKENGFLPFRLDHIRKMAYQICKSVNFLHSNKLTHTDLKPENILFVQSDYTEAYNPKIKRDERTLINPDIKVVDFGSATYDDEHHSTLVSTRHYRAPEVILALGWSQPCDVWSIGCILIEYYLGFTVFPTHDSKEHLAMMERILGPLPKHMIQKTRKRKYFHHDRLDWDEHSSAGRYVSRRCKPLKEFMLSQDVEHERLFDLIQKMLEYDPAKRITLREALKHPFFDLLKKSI
Chain of Dual specificity protein kinase CLK3 (P49761 whole entry): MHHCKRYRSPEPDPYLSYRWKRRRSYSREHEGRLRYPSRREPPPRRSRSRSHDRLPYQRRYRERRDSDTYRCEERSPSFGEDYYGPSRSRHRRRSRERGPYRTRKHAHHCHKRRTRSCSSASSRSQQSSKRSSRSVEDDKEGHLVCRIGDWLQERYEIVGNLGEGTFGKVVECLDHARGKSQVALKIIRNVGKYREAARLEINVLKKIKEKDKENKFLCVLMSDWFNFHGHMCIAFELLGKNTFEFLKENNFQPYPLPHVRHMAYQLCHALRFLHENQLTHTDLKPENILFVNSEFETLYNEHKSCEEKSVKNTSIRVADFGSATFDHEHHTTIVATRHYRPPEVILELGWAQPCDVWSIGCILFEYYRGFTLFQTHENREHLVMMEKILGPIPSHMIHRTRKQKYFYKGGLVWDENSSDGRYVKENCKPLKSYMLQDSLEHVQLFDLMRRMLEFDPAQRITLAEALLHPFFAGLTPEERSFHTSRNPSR

As to `Cn1ncc2cc(/C=C3\N=C(NC4CCCCC4)NC3=O)ccc21`, the pIC50 in [1] is under 5.00; in experiment [2] it was under 5.00; in experiment [3] it was 5.60; in [4], 5.11; in [5], 5.77; in experiment [6] it was 6.19. The pIC50 in [7] is 5.59; in experiment [8], under 5.00; in [9], under 5.00; in [10], 6.85.

Consider `Cn1cc2cc(/C=C3\N=C(NC45CC6CC(CC(C6)C4)C5)NC3=O)ccc2n1`, for which the pIC50 in [1] was under 5.00; in [2] it was under 5.00; in experiment [3], 8.40; in [5], under 5.00; in experiment [11], 7.40; in experiment [8], 5.37. The pIC50 in [9] was under 5.00; in [10] it was 8.70.

Turning to `COC(=O)[C@@H](NC1=N/C(=C\c2ccc3ncsc3c2)C(=O)N1)C(C)O` (stereo partly specified), the pIC50 is under 5.00 in [1]; under 5.00 in experiment [2]; 7.70 in [4]; 6.04 in [5]; 8.52 in [6]; 6.29 in experiment [7]. The pIC50 is 6.52 in experiment [11], 6.16 in [8], 5.22 in experiment [9] and 8.52 in experiment [10].

Regarding `O=C1NC(NC2CCCCC2)=N/C1=C\c1ccc2c(c1)CCO2`, the pIC50 in [1] is under 5.00; in experiment [2], under 5.00; in experiment [3], 6.98; in [4] it was 5.90; in experiment [5], 5.27; in experiment [6], 7.28. The pIC50 in experiment [7] was 5.47; in [8], 5.52; in experiment [9], under 5.00; in [10], 6.63.

As to `O=C1NC(NC23CC4CC(CC(C4)C2)C3)=N/C1=C\c1ccc2[nH]cnc2c1`, the negative logarithm of the IC50 (pIC50) in experiment [2] is under 5.00; in experiment [3] it was 8.30; in experiment [4], 8.70; in experiment [5], 5.12; in experiment [6], 8.70; in experiment [7], 7.29. Moreover, the figures for the pIC50 in experiment [8], in [9] and in [10] were 6.66, under 5.00 and 8.70, respectively.

With `CC(C)C[C@H](COCc1ccccc1)NC1=N/C(=C\c2ccc3ncsc3c2)C(=O)N1`, the pIC50 in experiment [1] was under 5.00; in experiment [2], under 5.00; in experiment [3] it was 6.66; in [4], 5.65; in [5], 5.24; in [6], 7.07. Moreover, the pIC50 was 6.02 in experiment [7], 5.27 in experiment [11], 5.57 in experiment [8] and 5.28 in experiment [9].

Regarding `Cn1cnc2ccc(/C=C3\N=C(NC4CCCCC4)NC3=O)cc21`, the pIC50 in experiment [2] is under 5.00; in experiment [3], 7.70; in experiment [5], 5.97; in [6], 8.10; in [7] it was 5.83; in experiment [8] it was 5.95. Moreover, the negative-log IC50 (pIC50) is under 5.00 in experiment [9] and 7.03 in [10].

Consider `O=C1NC(NC2CCCCCC2)=N/C1=C\c1ccc2c(c1)CCO2`, for which the pIC50 in [1] is under 5.00; in experiment [2] it was under 5.00; in [3], 7.62; in experiment [4] it was 5.83; in experiment [5], under 5.00; in experiment [6], 8.05. Also, the pIC50 is under 5.00 in [7], 5.38 in experiment [11], 5.31 in experiment [8] and under 5.00 in experiment [9].

For `O=C1NC(NC2CCCCCC2)=N/C1=C\c1ccc2[nH]ncc2c1`, the pIC50 is under 5.00 in [1]; under 5.00 in [2]; 6.86 in experiment [3]; 6.14 in [4]; 6.58 in experiment [5]; 6.95 in experiment [6]. Moreover, the negative logarithm of the IC50 (pIC50) in experiment [7] was 5.73; in experiment [9], 5.40; in [10], 7.48.

With `O=C1NC(NC23CC4CC(CC(C4)C2)C3)=N/C1=C\c1ccc2c(c1)OCO2`, the pIC50 was under 5.00 in experiment [1]; under 5.00 in experiment [2]; 7.77 in [3]; 7.02 in experiment [4]; under 5.00 in [5]; 8.40 in experiment [6]. Also, the pIC50 was 6.74 in experiment [7], 5.79 in [8], under 5.00 in [9] and 8.70 in [10].

For the molecule `Cn1cc2cc(/C=C3\N=C(NC4CCCCC4)NC3=O)ccc2n1`, the pIC50 in [1] is under 5.00; in [2] it was under 5.00; in [3], 6.02; in [4] it was 5.20; in [5], 5.34; in [7], 5.43. The pIC50 in experiment [11] is 5.38; in [8] it was under 5.00; in experiment [9], under 5.00; in [10] it was 6.24.

As for `O=C1NC(NC23CC4CC(CC(C4)C2)C3)=N/C1=C\c1ccc2c(c1)CCO2`, the pIC50 is under 5.00 in experiment [1]; under 5.00 in experiment [2]; 6.99 in [3]; 7.77 in experiment [4]; under 5.00 in experiment [5]; 7.18 in experiment [6]. The negative-log IC50 (pIC50) in [7] is 5.79; in experiment [8], 6.20; in experiment [9], under 5.00; in experiment [10] it was 7.30.

Consider `Cn1ncc2cc(/C=C3\N=C(NC4CCCCCC4)NC3=O)ccc21`, for which the pIC50 in experiment [1] is under 5.00; in experiment [2] it was under 5.00; in [3], 5.91; in experiment [4], under 5.00; in experiment [5] it was 6.42; in experiment [6], 6.37. Also, the pIC50 in experiment [7] was 5.80; in experiment [8], 5.22; in [9], under 5.00; in experiment [10] it was 7.43.

On to `Cn1cnc2ccc(/C=C3\N=C(NC4CCCCCC4)NC3=O)cc21`, for which the pIC50 was under 5.00 in [1]; 5.06 in experiment [2]; 7.77 in experiment [3]; 6.99 in experiment [4]; 6.09 in experiment [5]; 5.83 in experiment [7]. Also, the pIC50 is 6.12 in [11], 5.98 in experiment [8], under 5.00 in experiment [9] and 7.17 in experiment [10].

For the molecule `O=C1NC(NC2CCCCCC2)=N/C1=C\c1ccc2[nH]cnc2c1`, the pIC50 in experiment [2] is under 5.00; in experiment [3], 7.51; in experiment [4], 6.29; in experiment [5], 5.81; in experiment [6], 8.10; in experiment [7], 5.66. The pIC50 in experiment [8] is 6.06; in experiment [9], under 5.00; in experiment [10], 7.01.

With `O=C1NC(NC2CCCCC2)=N/C1=C\c1ccc2[nH]ncc2c1`, the pIC50 in experiment [1] was under 5.00; in experiment [2] it was under 5.00; in [3], 6.27; in experiment [4], 5.63; in [5] it was 6.10; in experiment [8], under 5.00. Besides, the pIC50 was under 5.00 in experiment [9] and 6.58 in experiment [10].
